Data published in patent US20100317524A1, “Sulfonylureas” (Bayer CropScience AG, priority 2005, published 2010).

Tests used:
[1] = test system: weed plants such as Sinapis alba, Chrysanthemum segetum, Avena sativa, Stellaria media, Echinochloa crus-galli, Lolium multiflorum, Setaria viridis, Abutilon …; test: Pre-emergence effect on weeds (greenhouse pot test, visual scoring); assay type: in vivo; details: applied pre-emergence at a rate of 0.3 kg or less of active substance per hectare; visual scoring after 3 to 4 weeks vs untreated controls
Source text: Seeds or sections of rhizome from monocot and dicot weed plants were laid out in sandy loam soil in cardboard pots, and covered with soil. The compounds of the invention, formulated as wettable powders or emulsifiable concentrates, were then applied, in the form of aqueous suspensions or emulsions, at various dosages, onto the surface of the covering earth, at an application rate of 600 to 800 l of water per hectare (converted). Following the treatment, the pots were placed in a greenhouse and maintained under good growth conditions for the weeds. Visual scoring of the plant damage or emergence damage was made when the test plants had emerged, after a test time of 3 to 4 weeks, in comparison to untreated controls.

[2] = test system: weed plants such as Sinapis alba, Echinochloa crus-galli, Lolium multiflorum, Chrysanthemum segetum, Setaria viridis, Abutilon theophrasti, Amaranthus …; test: Post-emergence effect on weeds (greenhouse pot test, visual scoring); assay type: in vivo; details: applied post-emergence (three-leaf stage) at a rate of 0.3 kg or less of active substance per hectare; visual scoring after about 3 to 4 weeks vs untreated controls
Experimental: Seeds or sections of rhizome from monocot and dicot broadleaf weeds were laid out in sandy loam soil in plastic pots, covered with earth, and cultivated in a greenhouse under good growth conditions. Three weeks after sowing, the test plants were treated at the three-leaf stage. The compounds of the invention, formulated as wettable powders or as emulsion concentrates, were sprayed in different dosages onto the green parts of the plants, at an application rate of 600 to 800 l of water per hectare (converted). After the test plants had stood in the greenhouse under optimum growth conditions for a period of about 3 to 4 weeks, the effect of the products was scored visually in comparison to untreated controls.

SMILES | herbicidal action against weed plants, pre-emergence [1] | herbicidal action against weed plants, post-emergence [2]
COc1cc(Cl)nc(NC(=O)NS(=O)(=O)c2c(I)cccc2OC(C)C)n1 [Compound 1.187] | very good herbicidal action | very good herbicidal action
COc1nc(NC(=O)NS(=O)(=O)c2c(I)cccc2OC(C)C)nc(OC)n1 [Compound 1.191] | very good herbicidal action | very good herbicidal action
CCCCOc1cccc(I)c1S(=O)(=O)NC(=O)Nc1nc(OC)cc(OC)n1 [Compound 1.192] | very good herbicidal action | very good herbicidal action
CCC(C)Oc1cccc(I)c1S(=O)(=O)NC(=O)Nc1nc(OC)cc(OC)n1 (centres unmarked) [Compound 1.196] | very good herbicidal action | very good herbicidal action
COc1cc(OC)nc(NC(=O)NS(=O)(=O)c2c(I)cccc2OCC(C)C)n1 [Compound 1.197] | very good herbicidal action | very good herbicidal action
COc1cc(OC)nc(NC(=O)NS(=O)(=O)c2c(I)cccc2OCC2CC2)n1 [Compound 1.229] | very good herbicidal action | very good herbicidal action
COc1nc(C)nc(NC(=O)NS(=O)(=O)c2c(I)cccc2OCC2CC2)n1 [Compound 1.233] | very good herbicidal action | very good herbicidal action
Cc1cc(C)nc(NC(=O)NS(=O)(=O)c2c(I)cccc2OCC2CC2)n1 [Compound 1.237] | very good herbicidal action | very good herbicidal action
COc1cc(Cl)nc(NC(=O)NS(=O)(=O)c2c(I)cccc2OCC2CC2)n1 [Compound 1.238] | very good herbicidal action | very good herbicidal action
COc1nc(NC(=O)NS(=O)(=O)c2c(I)cccc2OCC2CC2)nc(OC)n1 [Compound 1.242] | very good herbicidal action | very good herbicidal action
COc1cc(OC)nc(NC(=O)NS(=O)(=O)c2c(I)cccc2OC(F)(F)F)n1 [Compound 1.302] | very good herbicidal action | very good herbicidal action
COc1nc(C)nc(NC(=O)NS(=O)(=O)c2c(I)cccc2OC(F)(F)F)n1 [Compound 1.306] | very good herbicidal action | very good herbicidal action
Cc1cc(C)nc(NC(=O)NS(=O)(=O)c2c(I)cccc2OC(F)(F)F)n1 [Compound 1.310] | very good herbicidal action | very good herbicidal action
COc1cc(Cl)nc(NC(=O)NS(=O)(=O)c2c(I)cccc2OC(F)(F)F)n1 [Compound 1.311] | very good herbicidal action | very good herbicidal action
COc1nc(NC(=O)NS(=O)(=O)c2c(I)cccc2OC(F)(F)F)nc(OC)n1 [Compound 1.315] | very good herbicidal action | very good herbicidal action
COc1cc(OC)nc(NC(=O)NS(=O)(=O)c2c(I)cccc2OC(F)F)n1 [Compound 1.321] | very good herbicidal action | very good herbicidal action

SMILES | herbicidal action against weed plants, pre-emergence [1] | herbicidal action against weed plants, post-emergence [2]
COc1nc(C)nc(NC(=O)NS(=O)(=O)c2c(I)cccc2OC(F)F)n1 [Compound 1.325] | very good herbicidal action | very good herbicidal action
Cc1cc(C)nc(NC(=O)NS(=O)(=O)c2c(I)cccc2OC(F)F)n1 [Compound 1.329] | very good herbicidal action | very good herbicidal action
COc1cc(Cl)nc(NC(=O)NS(=O)(=O)c2c(I)cccc2OC(F)F)n1 [Compound 1.330] | very good herbicidal action | very good herbicidal action
COc1nc(C)nc(NC(=O)NS(=O)(=O)c2c(I)cccc2OCC(F)(F)F)n1 [Compound 1.342] | very good herbicidal action | very good herbicidal action
Cc1cc(C)nc(NC(=O)NS(=O)(=O)c2c(I)cccc2OCC(F)(F)F)n1 [Compound 1.343] | very good herbicidal action | very good herbicidal action
COc1cc(Cl)nc(NC(=O)NS(=O)(=O)c2c(I)cccc2OCC(F)(F)F)n1 [Compound 1.344] | very good herbicidal action | very good herbicidal action
COc1nc(C)nc(NC(=O)NS(=O)(=O)c2c(I)cccc2OCC(F)F)n1 [Compound 1.352] | very good herbicidal action | very good herbicidal action
Cc1cc(C)nc(NC(=O)NS(=O)(=O)c2c(I)cccc2OCC(F)F)n1 [Compound 1.353] | very good herbicidal action | very good herbicidal action
COc1cc(Cl)nc(NC(=O)NS(=O)(=O)c2c(I)cccc2OCC(F)F)n1 [Compound 1.354] | very good herbicidal action | very good herbicidal action
COc1nc(NC(=O)NS(=O)(=O)c2c(I)cccc2OCC(F)F)nc(OC)n1 [Compound 1.355] | very good herbicidal action | very good herbicidal action
COc1cc(OC)nc(NC(=O)NS(=O)(=O)c2c(I)cccc2OC(C)C(F)(F)F)n1 (centres unmarked) [Compound 1.362] | very good herbicidal action | very good herbicidal action
COc1nc(C)nc(NC(=O)NS(=O)(=O)c2c(I)cccc2OC(C)C(F)(F)F)n1 (centres unmarked) [Compound 1.363] | very good herbicidal action | very good herbicidal action
Cc1cc(C)nc(NC(=O)NS(=O)(=O)c2c(I)cccc2OC(C)C(F)(F)F)n1 (centres unmarked) [Compound 1.364] | very good herbicidal action | very good herbicidal action
COc1cc(Cl)nc(NC(=O)NS(=O)(=O)c2c(I)cccc2OC(C)C(F)(F)F)n1 (centres unmarked) [Compound 1.365] | very good herbicidal action | very good herbicidal action
COc1nc(NC(=O)NS(=O)(=O)c2c(I)cccc2OC(C)C(F)(F)F)nc(OC)n1 (centres unmarked) [Compound 1.366] | very good herbicidal action | very good herbicidal action
